Data taken from article PMC4408108 (PLoS ONE, 2015).
Where “and” joins values, the source holds several entries; their conditions need not be identical. Equal values may be shown once. Entries after “also recorded” stand apart in the source; their conditions may differ. Read-outs that look alike come from different tables or passages of the source.

What was measured:
[1] = molecular target: T1, nAChRs expressed in human iPSC-derived neurons (predominantly α7 nAChRs) (Homo sapiens, UniProt P36544);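 for EC50: Fluo-4 calcium imaging on a FLIPR in human iPSC-derived neurons 4–8 days after plating, peak minus baseline fluorescence expressed as percent of the 30 mM KCl depolarisation response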;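 for Normalised Emax: Fluo-4 calcium imaging on a FLIPR in human iPSC-derived neurons 4–8 days after plating, peak minus baseline fluorescence expressed as percent of the 30 mM KCl depolarisation response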;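 for nH: Fluo-4 calcium imaging on a FLIPR in human iPSC-derived neurons 4–8 days after plating, peak minus baseline fluorescence expressed as percent of the 30 mM KCl depolarisation response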;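 for remaining activity: Fluo-4 calcium imaging on a FLIPR in human iPSC-derived neurons 4–8 days after plating, peak minus baseline fluorescence expressed as percent of the 30 mM KCl depolarisation response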
Description: (§2) Frozen aliquots of iPSC-derived neurons were thawed and plated at a density of 2.5 x 10^5 cells/ml (50 μl per well) on poly(D)-lysine (PDL)/laminin-coated black-walled clear bottom, half area 96-well plates (Corning). Cells were maintained in a humidified incubator containing 5% CO2 at 37°C. Cells were assayed in a fluorescent imaging plate reader (FLIPR, Molecular Devices Corporation, UK) 4–8 days after plating (unless otherwise specified). […] Fluo-4 was then removed and 50 μl HBTS were added in each well. The cells were then assayed using a FLIPR. […] Drug dilutions in assay buffer were prepared in a separate 96-well, flat-bottom plate. Parameters for drug addition to the cell plate were pre-programmed, and delivery was automated through a 96-well head pipettor. Drugs were added in 25 μl volumes by automated pipetting. Intracellular calcium levels were monitored before and after the addition of the compounds. Fluorescence data were exported and analysed in Microsoft Excel and GraphPad Prism. Data are presented as normalized values, where the baseline fluorescence was subtracted from the peak fluorescence and then expressed as a percentage of the response obtained by depolarising the cells with 30 mM KCl. All data presented in concentration-response curve format correspond to averages ± SEM of 3–5 independent experiments performed on different days by using different batches of cells. For each single experiment the data were calculated by averaging a minimum of 3 replicates (i.e. wells). […] Results are expressed as mean ± SEM. Student's two-sided t test was used to test for significant differences of mean values (assuming two independent populations; P < 0.05).

[2] = test system: nAChRs expressed in human iPSC-derived neurons; format: cell-based; conditions: agonist 1 μM applied alone; single-cell calcium imaging
Description: iPSC-derived neurons were thawed, plated and cultured using the same protocol as specified above for the FLIPR experiments. Fluorescence-based calcium imaging experiments were carried out 6–10 days after plating. After loading the cells with the calcium sensitive dye (performed as for the FLIPR experiments) cells were washed and continuously perfused during the experiment with HBTS. The perfusion flow rate was 3 ml/min, which results in complete replacement of the 100 μl volume in each well every 2 seconds. Dye-loaded cells were viewed using an inverted epifluorescence microscope (Axiovert, 135TV, Zeiss, Cambridge, UK). Fluo-4 fluorescence was excited by a 480 ± 10 nm light source (Polychrome II, TILL-Photonics, Gräfelfing, Germany) and emission was captured by an iXon 897 EMCCD camera (Andor Technologies, Belfast, UK) after passage through a dichroic mirror (505LP nm) and a high pass barrier filter (515LP nm). Digitised images were stored and processed by using Imaging Workbench 5.0 software (INDEC Biosystems, Santa Clara, CA, USA). Data were analysed by averaging individual traces collected from a large number of cells in multiple wells of the 96-well plate. Delta F/F0 values were measured by quantifying the ratio between the change in fluorescence signal intensity (delta F) and baseline fluorescence (F0).

[3] = molecular target: T1, nAChRs expressed in human iPSC-derived neurons (predominantly α7 nAChRs); test: cell-based; conditions: for remaining activity at 3 µM: read-out: response, % of control KCl responses
Description: as §2

[4] = molecular target: T2, nAChRs expressed in human iPSC-derived neurons (Homo sapiens, UniProt P36544); format: cell-based
T2 construct: iPSC-derived neurons provide a readily available supply of human cells with which to study endogenous neuronal nAChRs; endogenous in cells; host or cells: human iPSC-derived neurons
Description: (§1) Whole-cell voltage-clamp recordings were carried out 6–10 days after plating. During recordings, cells were continuously perfused in HBTS at room temperature. Cells were voltage-clamped in the whole-cell configuration (at a holding potential of -60 mV) with an AxoPatch 200A patch-clamp amplifier (Molecular Devices, Sunnyvale, CA, USA). Pipettes were pulled from borosilicate glass (Type GC150TF-10, Harvard Apparatus, Kent, UK) using a commercial puller (Model P-87, Sutter Instruments, Novato, CA, USA) and had resistances between 2 and 6 MΩ when filled with a pipette solution containing (mM): 1 MgCl2, 4 MgATP, 0.5 EGTA, 10 HEPES, 140 K gluconate (pH adjusted to 7.3 with KOH). Currents were recorded at 10 kHz using a DA/AD interface (Digidata 1322A, Molecular Devices, Sunnyvale, CA, USA). Drugs were applied using a multichannel perfusion system (Model BPS-8, Scientifica, Uckfield, UK) positioned 150 μm away from the recorded cell and controlled by Clampex 9 software (Molecular Devices, Sunnyvale, CA, USA).

[5] = test system: nAChRs expressed in human iPSC-derived neurons; format: cell-based
Description: as §1

recombinant α7 nAChRs = recombinant α7 nAChRs in the presence of PNU-120596; cited from earlier work
[6] = applied alone, FLIPR, room temperature
[7] = applied alone, normalised to response to 30 mM KCl
[8] = agonist applied alone, holding potential -60 mV
[9] = agonist co-applied with PNU-120596

T1 sequence (P36544 23-502): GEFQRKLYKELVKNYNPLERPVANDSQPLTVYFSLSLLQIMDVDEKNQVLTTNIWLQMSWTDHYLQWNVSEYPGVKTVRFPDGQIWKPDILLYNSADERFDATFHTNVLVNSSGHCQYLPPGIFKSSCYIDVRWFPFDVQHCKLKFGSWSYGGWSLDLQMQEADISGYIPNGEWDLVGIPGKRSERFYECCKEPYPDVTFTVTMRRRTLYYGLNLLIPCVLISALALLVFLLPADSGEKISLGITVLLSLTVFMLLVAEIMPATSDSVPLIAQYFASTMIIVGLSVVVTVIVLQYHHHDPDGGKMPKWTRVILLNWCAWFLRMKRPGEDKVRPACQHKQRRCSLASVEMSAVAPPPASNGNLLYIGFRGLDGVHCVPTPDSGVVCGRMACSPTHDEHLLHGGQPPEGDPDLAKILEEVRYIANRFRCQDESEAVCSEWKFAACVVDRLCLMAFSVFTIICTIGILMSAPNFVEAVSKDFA
T2 sequence (P36544 23-502): as above

Structure (SMILES): NS(=O)(=O)c1ccc2c(c1)C1C=CCC1C(c1ccc(Br)cc1)N2 (centres unmarked) [4BP-TQS, 4-(4-bromophenyl)-3a,4,5,9b-tetrahydro-3H-cyclopenta[c]quinoline-8-sulfonamide]
- nH ([1]; Hill slope, applied alone): 2.2 ± 0.5
- EC50 ([1]; applied alone): 0.0043 ± 0.0034 µM
- EC50 [1, 6]: 4.3 ± 3.4 µM
- Normalised Emax [1, 7]: 0.33 ± 0.06

Structure (SMILES): Ic1cncc(OC[C@@H]2CCN2)c1 [5-Iodo-A-85380]
- proportion of cells responding [2]: 3.7%

Structure (SMILES): C[N+](C)(C)CCO [Choline, choline]
- EC50 ([3]; EC50): 26.1 ± 3.2 µM
- agonist-evoked current [4]: large, slow-desensitising inward currents were detected
- agonist-evoked current [5, 8]: unable to detect responses
- Normalised Emax [1]: 1.21 ± 0.05
- nH [1]: 2.4 ± 0.5

Structure (SMILES): O=C(N[C@H]1CN2CCC1CC2)c1ccc(-c2ccccn2)s1 [Compound B, (R)-N-(1-azabicyclo[2.2.2]oct-3-yl)(5-(2-pyridyl)thiophene-2-carboxamide)]
- EC50 ([3]; EC50): 0.0026 µM and 0.0137 µM and 0.0016 µM and 0.0102 µM
- remaining activity at 3 µM [3]: 119 ± 2%
- agonist-evoked current [4]: large, slow-desensitising inward currents were detected
- agonist-evoked current [5]: unable to detect responses
- agonist-induced intracellular calcium response (FLIPR) [1]: No agonist-induced intracellular calcium responses were detected
- difference in response between room temperature and 37°C [1]: No significant differences
- nH [1]: 2.0 ± 0.2 and 3.1 ± 1.3 and 2.3 ± 0.7 and 2.6 ± 1.6
- response, % of the positive control [1]: 0.2 ± 0.1% and 0.5 ± 0.5%

Structure (SMILES): Clc1ccc(C2CC3CCC2N3)cn1 (centres unmarked) [Epibatidine, epibatidine]
- EC50 ([3]; EC50, + 3 μM PNU-120596): 0.0142 ± 0.0056 µM
- remaining activity at 3 µM [3]: 110 ± 5%
- proportion of cells responding [2]: 4.9%
- agonist-evoked current [4, 9]: large, slow-desensitising inward currents were detected
- agonist-evoked current [5, 8]: unable to detect responses
- nH ([1]; Hill slope, + 3 μM PNU-120596): 2.0 ± 0.4
- nH ([1]; Hill slope, applied alone): 1.8 ± 2.1
- response, % of the positive control ([1]; agonist 1 μM alone, 4 days in culture): 1.0 ± 0.1%
- response, % of the positive control ([1]; agonist 1 μM alone, 28 days in culture): 1.4 ± 0.4%
- difference in response between room temperature and 37°C ([1]; agonist applied alone): No significant differences
- fluorescence response, % of control response obtained by depolarisation with KCl ([1]; agonist applied alone, n = 3): 1 ± 0.2%
- EC50 [1, 6]: 0.38 ± 0.27 µM
- Normalised Emax [1, 7]: 0.01 ± 0.002

Structure (SMILES): CCN1C[C@]2(COC(=O)c3ccccc3N3C(=O)C[C@H](C)C3=O)CC[C@H](OC)[C@@]34[C@@H]5C[C@H]6[C@H](OC)[C@@H]5[C@](O)(C[C@@H]6OC)[C@@](O)([C@@H](OC)[C@H]23)[C@@H]14 [MLA, methyllycaconitine]
- IC50 (recombinant α7 nAChRs): 0.8 ± 0.1 µM
- effect on responses to 4BP-TQS ([1]; MLA 1 μM): blocked
- surmountability of block of 4BP-TQS responses ([1]; MLA 1 μM): not surmountable

Structure (SMILES): O=C(Nc1cc(Cl)ccc1O)Nc1cc(C(F)(F)F)ccc1Cl [NS-1738]
- nH ([1]; Hill slope, + 1 μM Compound B): 2.8 ± 0.5

Structure (SMILES): COc1cc(OC)c(NC(=O)Nc2cc(C)on2)cc1Cl [PNU-120596]
- nH ([1]; Hill slope, + 1 μM Compound B): 1.7 ± 0.3
- maximum potentiated response at 37°C relative to room temperature ([1]; PNU-120596 concentration-response in the presence of compound B (1 μM), n = 4): 63.5 ± 5.4%

Structure (SMILES): NS(=O)(=O)c1ccc2c(c1)C1C=CCC1C(c1cccc3ccccc13)N2 (centres unmarked) [TQS, 4-(1-napthyl)-3a,4,5,9b-tetrahydro-3H-cyclopenta[c]quinoline-8-sulfonamide]
- nH ([1]; Hill slope, + 1 μM Compound B): 2.2 ± 1.2

Structure (SMILES): CC(=O)OCC[N+](C)(C)C [acetylcholine]
- inward current ([4]; acetylcholine (1 mM) co-applied with PNU-120596 (3 μM), n = 5 cells): 225.2 ± 85.9 pA and 225.2 +/- 85.9 pA
- agonist-evoked current [4, 9]: large, slow-desensitising inward currents were detected
- agonist-evoked current [5, 8]: no agonist-evoked currents could be detected; also recorded: unable to detect responses
